Reference: PubChem BioAssay AID330 (DTP/NCI, 2004)
Values joined by “and” are separate entries in the source; they are usually repeats but may differ in a detail not shown here. Equal values may be shown once. Inconclusive results and toxic doses are left out. How the source made its calls: active means survival T/C of 150% or more; inactive means T/C below 125% in these data.

Tested on: P388 leukemia ip, CD2F1 mice, survival T/C
Experiment: NCI In Vivo Anticancer Drug Screen. Data for tumor model P388 Leukemia (intraperitoneal) in CD2F1 (CDF1) mice
Conditions: endpoint: median survival time, higher = longer survival
How it was run: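 Mice carrying the transplanted tumor received test compound or vehicle. Survival was recorded in each group, and the value is the treated-group measurement divided by that of the vehicle-treated control group.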

[1] = dose: 60.0 mg/kg/injection, schedule: Q01DX005 (ip), vehicle: saline with Tween-80
[2] = dose: 120.0 mg/kg/injection, schedule: Q01DX005 (ip), vehicle: saline with Tween-80
[3] = dose: 240.0 mg/kg/injection, schedule: Q01DX005 (ip), vehicle: saline with Tween-80
[4] = dose: 50.0 mg/kg/injection, schedule: Q01DX005 (ip), vehicle: saline with Tween-80
[5] = dose: 25.0 mg/kg/injection, schedule: Q01DX009 (ip), vehicle: saline with Tween-80
[6] = dose: 50.0 mg/kg/injection, schedule: Q01DX009 (ip), vehicle: saline with Tween-80
[7] = dose: 12.5 mg/kg/injection, schedule: Q01DX005 (ip), vehicle: Klucel (hydroxypropylcellulose) (HPC)
[8] = dose: 25.0 mg/kg/injection, schedule: Q01DX005 (ip), vehicle: Klucel (hydroxypropylcellulose) (HPC)
[9] = dose: 60.0 mg/kg/injection, schedule: Q01DX005 (ip), vehicle: Klucel (hydroxypropylcellulose) (HPC)
[10] = dose: 120.0 mg/kg/injection, schedule: Q01DX005 (ip), vehicle: Klucel (hydroxypropylcellulose) (HPC)
[11] = dose: 240.0 mg/kg/injection, schedule: Q01DX005 (ip), vehicle: Klucel (hydroxypropylcellulose) (HPC)

Measured: T/C

OC1CNCc2cc3c(cc21)OCO3 (configuration not stated)
inactive: dose: 60.0 mg/kg/injection, schedule: Q01DX005 (ip), vehicle: saline 110 % of control | dose: 120.0 mg/kg/injection, schedule: Q01DX005 (ip), vehicle: saline 107 % of control | dose: 240.0 mg/kg/injection, schedule: Q01DX005 (ip), vehicle: saline 100 % of control

CCCCCCCCN1CCOCCOCCN(CCCCCCCC)c2nc(Cl)nc(n2)NCCOCCOCCNc2nc(Cl)nc1n2
inactive: [1] 98 % of control | [2] 93 % of control

Cc1nc2[nH]ncc2c(=O)n1N
inactive: dose: 50.0 mg/kg/injection, schedule: Q01DX005 (ip), vehicle: saline 97 % of control | dose: 100.0 mg/kg/injection, schedule: Q01DX005 (ip), vehicle: saline 108 % of control | dose: 200.0 mg/kg/injection, schedule: Q01DX005 (ip), vehicle: saline 101 % of control

NC(C(=O)O)C(CC(=O)O)c1ccc(O)cc1 (configuration not stated)
inactive: dose: 50.0 mg/kg/injection, schedule: Q01DX007 (ip), vehicle: saline 100 % of control | dose: 100.0 mg/kg/injection, schedule: Q01DX007 (ip), vehicle: saline 100 % of control | dose: 200.0 mg/kg/injection, schedule: Q01DX007 (ip), vehicle: saline 101 % of control

O=C(Nc1cc(-c2ccccc2)[nH]n1)c1ccccc1Cl
inactive: [1] 100 % of control | [2] 93 % of control | [3] 93 % of control

O=C1C(Cl)=C(Nc2cccc3ccccc23)C(=O)c2ccccc21
inactive: dose: 6.25 mg/kg/injection, schedule: Q01DX005 (ip), vehicle: saline with Tween-80 104 % of control | dose: 12.5 mg/kg/injection, schedule: Q01DX005 (ip), vehicle: saline with Tween-80 101 % of control | dose: 25.0 mg/kg/injection, schedule: Q01DX005 (ip), vehicle: saline with Tween-80 109 % of control | [4] 108 % of control

CCOC(=O)Nc1nccs1
inactive: [5] 108 % of control | [6] 103 % of control | dose: 100.0 mg/kg/injection, schedule: Q01DX009 (ip), vehicle: saline with Tween-80 102 % of control | dose: 200.0 mg/kg/injection, schedule: Q01DX009 (ip), vehicle: saline with Tween-80 108 % of control

O=C(NP1(=O)NCc2ccccc2CN1)OC1CCCCC1
inactive: dose: 6.25 mg/kg/injection, schedule: Q01DX005 (ip), vehicle: Klucel (hydroxypropylcellulose) (HPC) 94 % of control | [7] 99 % of control | [8] 97 % of control

O=C1C(CCl)=CS(=O)(=O)c2ccccc21
inactive: dose: 6.25 mg/kg/injection, schedule: Q01DX009 (ip), vehicle: saline 109 % of control | dose: 12.5 mg/kg/injection, schedule: Q01DX009 (ip), vehicle: saline 116 % of control | dose: 25.0 mg/kg/injection, schedule: Q01DX009 (ip), vehicle: saline 100 % of control

COc1ccc(OC)c(NC(=O)CCCC(=O)CC(=O)c2cccnc2)c1
inactive: [1] 103 % of control | [2] 103 % of control | [3] 101 % of control

CC1(C)N=C(N)N=C(N)N1c1ccc(F)cc1
inactive: [7] 110 % of control | [8] 113 % of control

C#CCOC1CC(C)(O)Cc2cc3c(c(O)c21)C(=O)c1c(O)cc2c(c1C3=O)OC1OC2(C)C(O)C(N(C)C)C1O (configuration not stated)
inactive: dose: 20.0 mg/kg/injection, schedule: Q01DX009 (ip), vehicle: other 89 % of control

CCC[CH2][Sn]([Cl])([CH2]CCC)[S]C(=S)NCCNC(=S)[S][Sn]([Cl])([CH2]CCC)[CH2]CCC
inactive: dose: 0.78 mg/kg/injection, schedule: Q01DX009 (ip), vehicle: Klucel (hydroxypropylcellulose) (HPC) 93 % of control | dose: 1.56 mg/kg/injection, schedule: Q01DX009 (ip), vehicle: Klucel (hydroxypropylcellulose) (HPC) 98 % of control

CC(=O)N1c2ccccc2Oc2ccc3ccccc3c21
inactive: [4] 104 % of control | dose: 100.0 mg/kg/injection, schedule: Q01DX005 (ip), vehicle: saline with Tween-80 100 % of control | dose: 200.0 mg/kg/injection, schedule: Q01DX005 (ip), vehicle: saline with Tween-80 97 % of control

CC1=C(C(N)=O)C(c2ccccc2Cl)NC(=S)N1 (configuration not stated)
inactive: [9] 117 % of control | [10] 98 % of control | [11] 99 % of control

CCCCN(CCCC)c1cc(C(=O)CCCCCN)c2ccccc2n1
inactive: dose: 6.25 mg/kg/injection, schedule: Q01DX005 (ip), vehicle: saline 97 % of control | dose: 12.5 mg/kg/injection, schedule: Q01DX005 (ip), vehicle: saline 90 % of control | dose: 25.0 mg/kg/injection, schedule: Q01DX005 (ip), vehicle: saline 90 % of control and 94 % of control

O=C(c1ccccc1)C1(c2ccccc2)CCN(Cc2ccccc2)CC1
inactive: dose: 100.0 mg/kg/injection, schedule: Q04DX002 (ip), vehicle: saline with Tween-80 93 % of control | dose: 200.0 mg/kg/injection, schedule: Q04DX002 (ip), vehicle: saline with Tween-80 86 % of control | dose: 400.0 mg/kg/injection, schedule: Q04DX002 (ip), vehicle: saline with Tween-80 94 % of control

C=CCN(CC=C)c1cc(Cl)nnc1Cl
inactive: dose: 25.0 mg/kg/injection, schedule: Q01DX009 (ip), vehicle: other 104 % of control | dose: 50.0 mg/kg/injection, schedule: Q01DX009 (ip), vehicle: other 102 % of control | dose: 100.0 mg/kg/injection, schedule: Q01DX009 (ip), vehicle: other 103 % of control | dose: 200.0 mg/kg/injection, schedule: Q01DX009 (ip), vehicle: other 109 % of control

O=C(NC1COB(c2cccc([N+](=O)[O-])c2)OC1c1ccc([N+](=O)[O-])cc1)C(Cl)Cl (configuration not stated)
inactive: [9] 98 % of control | [10] 98 % of control | [11] 93 % of control

C[n+]1cccc2c1C(=O)C(=O)c1ncccc1-2
inactive: dose: 12.5 mg/kg/injection, schedule: Q01DX009 (ip), vehicle: saline with Tween-80 100 % of control | [5] 108 % of control | [6] 109 % of control

Cc1ccc(N=S(C)(C)=O)cc1
inactive: dose: 100.0 mg/kg/injection, schedule: Q01DX001 (ip), vehicle: saline with Tween-80 103 % of control | dose: 200.0 mg/kg/injection, schedule: Q01DX001 (ip), vehicle: saline with Tween-80 104 % of control | dose: 400.0 mg/kg/injection, schedule: Q01DX001 (ip), vehicle: saline with Tween-80 102 % of control

ClC1=CCCC(C(Br)Br)C1 (configuration not stated)
inactive: dose: 50.0 mg/kg/injection, schedule: Q01DX009 (ip), vehicle: Klucel (hydroxypropylcellulose) (HPC) 99 % of control | dose: 100.0 mg/kg/injection, schedule: Q01DX009 (ip), vehicle: Klucel (hydroxypropylcellulose) (HPC) 100 % of control | dose: 200.0 mg/kg/injection, schedule: Q01DX009 (ip), vehicle: Klucel (hydroxypropylcellulose) (HPC) 102 % of control

CC1=C2CC/C(C)=C/CCC3(C)OC3CC/C(C)=C/C2OC1=O (configuration not stated)
inactive: dose: 1.25 mg/kg/injection, schedule: Q01DX009 (ip), vehicle: other 118 % of control | dose: 2.0 mg/kg/injection, schedule: Q01DX009 (ip), vehicle: Klucel (hydroxypropylcellulose) (HPC) 91 % of control | dose: 2.5 mg/kg/injection, schedule: Q01DX009 (ip), vehicle: other 105 % of control | dose: 4.0 mg/kg/injection, schedule: Q01DX009 (ip), vehicle: Klucel (hydroxypropylcellulose) (HPC) 89 % of control | dose: 5.0 mg/kg/injection, schedule: Q01DX009 (ip), vehicle: other 112 % of control | dose: 10.0 mg/kg/injection, schedule: Q01DX009 (ip), vehicle: saline with Tween-80 92 % of control | dose: 16.0 mg/kg/injection, schedule: Q01DX009 (ip), vehicle: Klucel (hydroxypropylcellulose) (HPC) 94 % of control | dose: 20.0 mg/kg/injection, schedule: Q01DX009 (ip), vehicle: saline with Tween-80 89 % of control | dose: 32.0 mg/kg/injection, schedule: Q01DX009 (ip), vehicle: Klucel (hydroxypropylcellulose) (HPC) 94 % of control | dose: 40.0 mg/kg/injection, schedule: Q01DX009 (ip), vehicle: saline with Tween-80 108 % of control

COc1cc2cc(c1Cl)N(C)C(=O)CC(OC(=O)CC(C)C)C1(C)OC1C(C)C1CC(O)(NC(=O)O1)C(OC)/C=C/C=C(C)C2 (configuration not stated)
inactive: dose: 6.2 micrograms/kg/injection, schedule: Q01DX009 (ip), vehicle: saline + alcohol 113 % of control | dose: 6.25 micrograms/kg/injection, schedule: Q01DX009 (ip), vehicle: saline + alcohol 111 % of control and 120 % of control | dose: 100.0 micrograms/kg/injection, schedule: Q01DX009 (ip), vehicle: saline + alcohol 106 % of control
